Counter-ions that a name gives are not always drawn. Like-named read-outs stand apart in the source and are kept apart here. Starred links: 1 amine or outer side, 2 acyl side, 3 side chain; linkers in the order of their positions; H or OH if unused. Positions of bridges follow the written chain, without caps; N, C: chain ends. Non-standard residues stand in square brackets, D forms with d. Residues, ends and D or L forms follow the SMILES beside them. *: point of attachment. pTerphenylCO(4''-OnC5H11) = CCCCCOc1ccc(-c2ccc(-c3ccc(C(=O)*)cc3)cc2)cc1; Orn(4R-OH,5R-OH) = O=C([C@H](C[C@@H](O)[C@@H](O)N[*:3])N[*:1])[*:2]; hTyr(3S-OH,4S-OH) = N[C@H](C(=O)O)[C@H](O)[C@@H](O)c1ccc(O)cc1; Pro(3S-OH,4S-Me) = C[C@H]1CN[C@H](C(=O)O)[C@H]1O; Hyp = O=C(O)[C@@H]1C[C@@H](O)CN1
How the values were obtained:
Type in all cases: biochemical
[1] = target: T1, recombinant PRL-2 (Homo sapiens, UniProt Q12974); experiment: In vitro phosphatase assay (DiFMUP hydrolysis), PRL-2;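 also: PRL-2 activity read as DiFMUP hydrolysis after 20 min at room temperature with drug, enzyme first pre-reduced at 4 °C for 20 min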
T1 construct: 6xHis (N, cleaved yes); made in house; host or cells: E. coli One Shot BL21 Star
T1 sequence (Q12974 1-167): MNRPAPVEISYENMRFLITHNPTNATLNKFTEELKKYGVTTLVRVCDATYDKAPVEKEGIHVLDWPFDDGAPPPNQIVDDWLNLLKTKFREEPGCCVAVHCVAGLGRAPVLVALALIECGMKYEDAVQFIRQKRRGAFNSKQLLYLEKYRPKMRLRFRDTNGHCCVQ
Description: Briefly, protein was diluted in reaction buffer and allowed to incubate at 4 °C for 20 min to allow for full reduction of the active site. DiFMUP, drug, and protein were added, and plates were incubated for 20 min at room temperature. Fluorescence intensities were measured on a Cytation 5 plate reader (Biotek) at an EX:360 nm and EM:460 nm. […] Inhibition selectivity for PRLs over a panel of other phosphatases was determined using PhosphataseProfiler (Eurofins, Cat # PP260).

[2] = target: T2, recombinant PRL-1 (Homo sapiens, UniProt Q93096); experiment: In vitro phosphatase assay (DiFMUP hydrolysis), PRL-1; also: test concentration or dose not given here
T2 construct: 6xHis (N, cleaved yes); made in house; host or cells: E. coli One Shot BL21 Star
T2 sequence (Q93096 1-173): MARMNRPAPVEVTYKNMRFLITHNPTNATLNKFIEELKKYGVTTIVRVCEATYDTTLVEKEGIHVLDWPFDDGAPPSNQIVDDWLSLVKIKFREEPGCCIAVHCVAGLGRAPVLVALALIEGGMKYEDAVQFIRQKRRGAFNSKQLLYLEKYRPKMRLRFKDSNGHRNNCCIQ

[3] = target: T3, recombinant PRL-3 (Homo sapiens, UniProt O75365); experiment: In vitro phosphatase assay (DiFMUP hydrolysis), PRL-3; also: test concentration or dose not given here
T3 construct: 6xHis (N, cleaved yes); made in house; host or cells: E. coli One Shot BL21 Star
T3 sequence (O75365 whole entry): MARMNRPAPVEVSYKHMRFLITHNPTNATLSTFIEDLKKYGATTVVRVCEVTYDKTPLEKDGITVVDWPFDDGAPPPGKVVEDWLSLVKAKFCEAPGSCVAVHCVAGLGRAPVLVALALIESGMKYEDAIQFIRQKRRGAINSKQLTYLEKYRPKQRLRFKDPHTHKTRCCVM

[4] = FDA-approved drug screen, compared to DMSO

Row | Structure (SMILES) | % Phosphatase Activity (compared to DMSO) PRL-2 [1, 4] [%] | % Phosphatase Activity (compared to DMSO) PRL-1 [2, 4] [%] | % Phosphatase Activity (compared to DMSO) PRL-3 [3, 4] [%] | % Phosphatase Activity (compared to DMSO) PRL-2 [1] [%] | % Phosphatase Activity (compared to DMSO) PRL-1 [2] [%] | % Phosphatase Activity (compared to DMSO) PRL-3 [3] [%]
1 | Cl.Nc1c(Br)cc(Br)cc1CN[C@H]1CC[C@H](O)CC1 [Ambroxol HCl] | 117 | 105 | 98 |  |  | 
2 | CC(NC(C)(C)C)C(=O)c1cccc(Cl)c1.Cl (stereo not drawn) [Amfebutamone HCl] | 110 | 102 | 77 |  |  | 
3 | Nc1c(CC(=O)[O-])cccc1C(=O)c1ccccc1.O.[Na+] [Amfenac Sodium Monohydrate] | 108 | 89 | 67 |  |  | 
4 | NCCCNCCSP(=O)(O)O [Amifostine] | 108 | 110 | 114 |  |  | 
5 | NCC[C@H](O)C(=O)N[C@@H]1C[C@H](N)[C@@H](O[C@H]2O[C@H](CN)[C@@H](O)[C@H](O)[C@H]2O)[C@H](O)[C@H]1O[C@H]1O[C@H](CO)[C@@H](O)[C@H](N)[C@H]1O [Amikacin disulfate] | 152 | 96 | 110 |  |  | 
6 | NCC[C@H](O)C(=O)N[C@@H]1C[C@H](N)[C@@H](O[C@H]2O[C@H](CN)[C@@H](O)[C@H](O)[C@H]2O)[C@H](O)[C@H]1O[C@H]1O[C@H](CO)[C@@H](O)[C@H](N)[C@H]1O [Amikacin hydrate] | 95 | 91 | 107 |  |  | 
7 | N=C(N)NC(=O)c1nc(Cl)c(N)nc1N [Amiloride HCl] | 300 | 234 | 230 |  |  | 
8 | N=C(N)NC(=O)c1nc(Cl)c(N)nc1N [Amiloride hydrochloride dihydrate] | 219 | 254 | 220 |  |  | 
9 | CCC1(c2ccc(N)cc2)CCC(=O)NC1=O (stereo not drawn) [Aminoglutethimide] | 107 | 94 | 77 |  |  | 
10 | Cl.N=C(N)NN [Aminoguanidine (hydrochloride)] | 91 | 100 | 87 |  |  | 
11 | Cn1c(=O)c2[nH]cnc2n(C)c1=O [Aminophylline] | 96 | 97 | 62 |  |  | 
12 | Nc1nccs1 [Aminothiazole] | 103 | 108 | 79 |  |  | 
13 | CCCCc1oc2ccccc2c1C(=O)c1cc(I)c(OCCN(CC)CC)c(I)c1 [Amiodarone HCl] |  |  |  | 117 | 97 | 102
14 | CCN1CCCC1CNC(=O)c1cc(S(=O)(=O)CC)c(N)cc1OC (stereo not drawn) [Amisulpride] | 89 | 94 | 74 |  |  | 
15 | CN(C)CCC=C1c2ccccc2CCc2ccccc21 [Amitriptyline HCl] | 101 | 92 | 89 |  |  | 
16 | CCOC(=O)C1=C(COCCN)NC(C)=C(C(=O)OC)C1c1ccccc1Cl.O=S(=O)(O)c1ccccc1 (stereo not drawn) [Amlodipine besylate (Norvasc)] | 174 | 152 | 168 |  |  | 

Row | Structure (SMILES) | % Phosphatase Activity (compared to DMSO) PRL-2 [1, 4] [%] | % Phosphatase Activity (compared to DMSO) PRL-1 [2, 4] [%] | % Phosphatase Activity (compared to DMSO) PRL-3 [3, 4] [%] | % Phosphatase Activity (compared to DMSO) PRL-2 [1] [%] | % Phosphatase Activity (compared to DMSO) PRL-1 [2] [%] | % Phosphatase Activity (compared to DMSO) PRL-3 [3] [%]
17 | CCOC(=O)C1=C(COCCN)NC(C)=C(C(=O)OC)C1c1ccccc1Cl (stereo not drawn) [Amlodipine] | 157 | 145 | 149 |  |  | 
18 | CCN(CC)Cc1cc(Nc2ccnc3cc(Cl)ccc23)ccc1O.Cl.Cl.O.O [Amodiaquin (dihydrochloride dihydrate)] | 74 | 84 | 77 |  |  | 
19 | CN(C)CCN1C(=O)c2cccc3cc(N)cc(c23)C1=O [Amonafide] | 98 | 89 | 72 |  |  | 
20 | CCC(C)(C)c1ccc(CC(C)CN2C[C@@H](C)O[C@@H](C)C2)cc1 (stereo partly drawn) [Amorolfine HCl] | 94 | 102 | 78 |  |  | 
21 | Clc1ccc2c(c1)C(N1CCNCC1)=Nc1ccccc1O2 [Amoxapine] | 118 | 109 | 88 |  |  | 
22 | CC1(C)S[C@@H]2[C@H](NC(=O)[C@H](N)c3ccc(O)cc3)C(=O)N2[C@H]1C(=O)[O-].[Na+] [Amoxicillin Sodium] |  |  |  | 114 | 97 | 80
23 | C[C@@H]1[C@H](O)[C@@H](C)/C=C/C=C/C=C/C=C/C=C/C=C/C=C/[C@H](O[C@@H]2O[C@H](C)[C@@H](O)[C@H](N)[C@@H]2O)C[C@@H]2O[C@](O)(C[C@@H](O)C[C@@H](O)[C@H](O)CC[C@@H](O)C[C@@H](O)CC(=O)O[C@H]1C)C[C@H](O)[C@H]2C(=O)O [Amphotericin B] | 92 | 102 | 80 |  |  | 
24 | CC1(C)S[C@@H]2[C@H](NC(=O)[C@H](N)c3ccccc3)C(=O)N2[C@H]1C(=O)O [Ampicillin Trihydrate] | 106 | 92 | 72 |  |  | 
25 | CC1(C)S[C@@H]2[C@H](NC(=O)[C@H](N)c3ccccc3)C(=O)N2[C@H]1C(=O)O [Ampicillin sodium] | 127 | 120 | 92 |  |  | 
26 | CCOC(=O)OC(C)OC1=C(C(=O)Nc2ccccn2)N(C)S(=O)(=O)c2ccccc21 (stereo not drawn) [Ampiroxicam] | 114 | 114 | 88 |  |  | 
27 | CC(C)CN(C[C@@H](O)[C@H](Cc1ccccc1)NC(=O)O[C@H]1CCOC1)S(=O)(=O)c1ccc(N)cc1 [Amprenavir] | 81 | 96 | 77 |  |  | 
28 | CCCc1ncc(C[n+]2ccccc2C)c(N)n1.Cl.[Cl-] [Amprolium HCl] | 97 | 97 | 94 |  |  | 
29 | S=C(NCc1ccc2c(c1)OCO2)N1CCN(c2ncnc3c2oc2ccccc23)CC1 [Amuvatinib (MP-470)] | 100 | 90 | 76 |  |  | 
30 | O=C1CN2Cc3c(ccc(Cl)c3Cl)N=C2N1 [Anagrelide HCl] | 91 | 93 | 80 |  |  | 
31 | CC(C)(C#N)c1cc(Cn2cncn2)cc(C(C)(C)C#N)c1 [Anastrozole] | 122 | 106 | 96 |  |  | 
32 | CCCCCOc1ccc(-c2ccc(-c3ccc(C(=O)N[C@H]4C[C@@H](O)[C@@H](O)NC(=O)[C@@H]5[C@@H](O)[C@@H](C)CN5C(=O)[C@H]([C@@H](C)O)NC(=O)[C@H]([C@H](O)[C@@H](O)c5ccc(O)cc5)NC(=O)[C@@H]5C[C@@H](O)CN5C(=O)[C@H]([C@@H](C)O)NC4=O)cc3)cc2)cc1 [Anidulafungin (LY303366)] ({pTerphenylCO(4''-OnC5H11)}-[Orn(4R-OH,5R-OH)]T[Hyp][hTyr(3S-OH,4S-OH)]T[Pro(3S-OH,4S-Me)]; lactam 1-C) | 568 | 569 | 623 |  |  | 

— paper PMC8119466, “A screen of FDA-approved drugs identifies inhibitors of protein tyrosine phosphatase 4A3 (PTP4A3 or PRL-3)” (Scientific Reports, 2021)
